These results are taken from BindingDB's records for doi:10.1016/j.bmc.2007.01.046 (University of Tokyo, 2007).

pEC50: −log10 of the molar value.

The test addresses T1, Bile acid receptor (Homo sapiens, UniProt Q96RI1).
T1 sequence (Q96RI1 whole entry): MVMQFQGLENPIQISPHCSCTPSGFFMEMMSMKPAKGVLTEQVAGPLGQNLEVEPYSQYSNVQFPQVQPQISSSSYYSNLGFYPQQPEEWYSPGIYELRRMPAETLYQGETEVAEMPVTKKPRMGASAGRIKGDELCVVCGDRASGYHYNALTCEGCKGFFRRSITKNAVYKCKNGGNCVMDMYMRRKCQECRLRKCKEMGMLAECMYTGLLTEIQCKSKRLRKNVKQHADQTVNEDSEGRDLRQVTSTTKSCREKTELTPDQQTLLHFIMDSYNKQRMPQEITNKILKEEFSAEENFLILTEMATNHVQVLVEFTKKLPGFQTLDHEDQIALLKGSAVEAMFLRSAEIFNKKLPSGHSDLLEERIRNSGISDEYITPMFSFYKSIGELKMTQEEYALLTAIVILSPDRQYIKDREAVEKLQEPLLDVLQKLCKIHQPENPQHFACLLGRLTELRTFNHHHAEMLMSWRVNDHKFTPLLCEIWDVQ
Briefly: Cotransfection Assay. Conditions: pH 7.2; 37 °C.
Usually pEC50 stands for the negative decadic logarithm of the EC50, by convention in mol/L. As to `O=C(O)c1cccc(/C=C/c2ccc(OCc3c(-c4c(Cl)cccc4Cl)noc3-c3ccc(-c4ccccc4)cc3)cc2Cl)c1` [3-[(E)-2-(2-chloro-4-{[3-(2,6-dichlorophenyl)-5-(4-phenylphenyl)-1,2-oxazol-4-yl]methoxy}phenyl)ethenyl]benzoic acid], the pEC50 is 4.47. `O=C(O)c1cccc(/C=C/c2ccc(OCc3c(-c4c(Cl)cccc4Cl)noc3-c3ccc4ccccc4c3)cc2Cl)c1` [3-[(E)-2-(2-chloro-4-{[3-(2,6-dichlorophenyl)-5-(naphthalen-2-yl)-1,2-oxazol-4-yl]methoxy}phenyl)ethenyl]benzoic acid] showed a negative logarithm of the EC50 (pEC50) of 4.65. Under `O=C(O)c1cccc(NC(=O)c2ccc(OCc3c(-c4c(Cl)cccc4Cl)noc3-c3ccc4ccccc4c3)cc2Cl)c1` [3-[(2-chloro-4-{[3-(2,6-dichlorophenyl)-5-(naphthalen-2-yl)-1,2-oxazol-4-yl]methoxy}benzene)amido]benzoic acid] stands 5.40; under `O=C(O)c1cccc(/C=C/c2ccc(OCc3c(-c4c(Cl)cccc4Cl)noc3-c3ccccc3)cc2Cl)c1` [3-[(E)-2-(2-chloro-4-{[3-(2,6-dichlorophenyl)-5-phenyl-1,2-oxazol-4-yl]methoxy}phenyl)ethenyl]benzoic acid], 4.80; under `O=C(O)c1cccc(NC(=O)c2ccc(OCc3c(-c4c(Cl)cccc4Cl)noc3-c3ccc(-c4ccccc4)cc3)cc2Cl)c1` [3-[(2-chloro-4-{[3-(2,6-dichlorophenyl)-5-(4-phenylphenyl)-1,2-oxazol-4-yl]methoxy}benzene)amido]benzoic acid], 5.43.
